{"source": "paper PMC7004565", "about": "“Nucleotide inhibition of the pancreatic ATP-sensitive K^+ channel explored with patch-clamp fluorometry” (eLife, 2020)", "key": {"Kir6.2-GFP (no SUR1)": {"molecular_target": "T1, Kir6.2-GFP (no SUR1) (Homo sapiens, UniProt Q14654)", "T1 construct": "ANAP labelling is specific and only full-length Kir6.2 is expressed at the cell membrane; expressed in transfected cells; host or cells: HEK-293T", "T1 sequence (Q14654 1-390)": "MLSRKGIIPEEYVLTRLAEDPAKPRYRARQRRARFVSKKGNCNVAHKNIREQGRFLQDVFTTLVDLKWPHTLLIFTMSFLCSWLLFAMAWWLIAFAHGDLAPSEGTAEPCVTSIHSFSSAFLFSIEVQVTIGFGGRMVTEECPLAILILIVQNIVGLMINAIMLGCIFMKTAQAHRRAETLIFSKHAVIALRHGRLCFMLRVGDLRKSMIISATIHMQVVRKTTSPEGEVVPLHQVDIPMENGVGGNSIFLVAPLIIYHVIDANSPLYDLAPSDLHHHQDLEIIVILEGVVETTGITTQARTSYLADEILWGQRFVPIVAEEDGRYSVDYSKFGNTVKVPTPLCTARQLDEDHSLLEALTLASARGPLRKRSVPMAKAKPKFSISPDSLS", "experiment": "FRET (ANAP quenching) nucleotide binding in unroofed membranes", "source_text": "(§1) To measure nucleotide binding, cells transfected with Kir6.2*-GFP + SUR1 were briefly sonicated, leaving behind unroofed plasma membrane fragments ([Heuser, 2000]; [Zagotta et al., 2016]; [Puljung et al., 2019]) containing ANAP-labelled KATP channels with the intracellular nucleotide-binding sites exposed to the bath solution. The sample was excited with a 385 nm LED and emitted fluorescence from the membrane fragments was passed through a spectrometer, allowing us to separate ANAP, GFP, and TNP-ATP fluorescence by peak wavelength (Figure 1E,F). As expected from FRET, increasing the concentration of TNP-ATP caused a decrement in the ANAP peak at 472 nm and a concomitant increase in the TNP-ATP peak at 561 nm (Figure 1F). We used the quenching of the ANAP peak as a direct measure of TNP-ATP binding as this signal was specific to KATP. In contrast, the peak TNP-ATP fluorescence may include contributions from both specific and non-specific nucleotide binding, as well as direct excitation of TNP-ATP in solution by the 385 nm excitation light. Due to the sharp cut-off of the GFP emission spectrum at shorter wavelengths, our measurements of peak ANAP fluorescence were unaffected by the presence of the GFP tag on Kir6.2.\nSUR1 plays a complex role in the regulation of Kir6.2. It increases the Popen of the channel and allows for the activation of the channel by Mg-nucleotides ([Nichols et al., 1996]; [Tucker et al., 1997]; [Babenko and Bryan, 2003]; [Chan, 2003]; [Fang et al., 2006]). However, it also increases the sensitivity of Kir6.2 to nucleotide inhibition ([Babenko and Bryan, 2003]; [Chan, 2003]; [Fang et al., 2006]). To understand the effect of SUR1 on nucleotide inhibition of KATP, we expressed Kir6.2*-GFP in the absence of SUR1 in unroofed membranes and measured TNP-ATP binding (Figure 4—figure supplement 1A). […] Unfortunately, we were unable to achieve high enough expression of Kir6.2*-GFP alone to carry out PCF experiments in the absence of SUR1. […]\n(§2) Epifluorescence imaging and spectroscopy were performed using a Nikon Eclipse TE2000-U microscope with a 60x water immersion objective (Plan Apo VC, NA = 1.2, Nikon; Kingston upon Thames, UK) or a 100x oil immersion objective (Nikon, Apo TIRF, NA = 1.49). […] Fluorescence spectra were collected by exciting ANAP as above but using a 400 nm long-pass emission filter (ThorLabs), then passing emitted light through an IsoPlane 160 Spectrometer (Princeton Instruments; Trenton, NJ) with a 300 grooves mm^-1 grating. […]\n(§3) Unroofed membranes were prepared as described previously ([Heuser, 2000]; [Zagotta et al., 2016]; [Puljung et al., 2019]). […] Unroofed membrane fragments were nearly invisible in bright-field images and identified by their GFP and ANAP fluorescence. […]"}, "Kir6.2-GFP + SUR1": {"molecular_target": "Kir6.2-GFP + SUR1 (Homo sapiens, UniProt Q14654)", "sequence (Q09428 whole entry partner, one chain of several)": "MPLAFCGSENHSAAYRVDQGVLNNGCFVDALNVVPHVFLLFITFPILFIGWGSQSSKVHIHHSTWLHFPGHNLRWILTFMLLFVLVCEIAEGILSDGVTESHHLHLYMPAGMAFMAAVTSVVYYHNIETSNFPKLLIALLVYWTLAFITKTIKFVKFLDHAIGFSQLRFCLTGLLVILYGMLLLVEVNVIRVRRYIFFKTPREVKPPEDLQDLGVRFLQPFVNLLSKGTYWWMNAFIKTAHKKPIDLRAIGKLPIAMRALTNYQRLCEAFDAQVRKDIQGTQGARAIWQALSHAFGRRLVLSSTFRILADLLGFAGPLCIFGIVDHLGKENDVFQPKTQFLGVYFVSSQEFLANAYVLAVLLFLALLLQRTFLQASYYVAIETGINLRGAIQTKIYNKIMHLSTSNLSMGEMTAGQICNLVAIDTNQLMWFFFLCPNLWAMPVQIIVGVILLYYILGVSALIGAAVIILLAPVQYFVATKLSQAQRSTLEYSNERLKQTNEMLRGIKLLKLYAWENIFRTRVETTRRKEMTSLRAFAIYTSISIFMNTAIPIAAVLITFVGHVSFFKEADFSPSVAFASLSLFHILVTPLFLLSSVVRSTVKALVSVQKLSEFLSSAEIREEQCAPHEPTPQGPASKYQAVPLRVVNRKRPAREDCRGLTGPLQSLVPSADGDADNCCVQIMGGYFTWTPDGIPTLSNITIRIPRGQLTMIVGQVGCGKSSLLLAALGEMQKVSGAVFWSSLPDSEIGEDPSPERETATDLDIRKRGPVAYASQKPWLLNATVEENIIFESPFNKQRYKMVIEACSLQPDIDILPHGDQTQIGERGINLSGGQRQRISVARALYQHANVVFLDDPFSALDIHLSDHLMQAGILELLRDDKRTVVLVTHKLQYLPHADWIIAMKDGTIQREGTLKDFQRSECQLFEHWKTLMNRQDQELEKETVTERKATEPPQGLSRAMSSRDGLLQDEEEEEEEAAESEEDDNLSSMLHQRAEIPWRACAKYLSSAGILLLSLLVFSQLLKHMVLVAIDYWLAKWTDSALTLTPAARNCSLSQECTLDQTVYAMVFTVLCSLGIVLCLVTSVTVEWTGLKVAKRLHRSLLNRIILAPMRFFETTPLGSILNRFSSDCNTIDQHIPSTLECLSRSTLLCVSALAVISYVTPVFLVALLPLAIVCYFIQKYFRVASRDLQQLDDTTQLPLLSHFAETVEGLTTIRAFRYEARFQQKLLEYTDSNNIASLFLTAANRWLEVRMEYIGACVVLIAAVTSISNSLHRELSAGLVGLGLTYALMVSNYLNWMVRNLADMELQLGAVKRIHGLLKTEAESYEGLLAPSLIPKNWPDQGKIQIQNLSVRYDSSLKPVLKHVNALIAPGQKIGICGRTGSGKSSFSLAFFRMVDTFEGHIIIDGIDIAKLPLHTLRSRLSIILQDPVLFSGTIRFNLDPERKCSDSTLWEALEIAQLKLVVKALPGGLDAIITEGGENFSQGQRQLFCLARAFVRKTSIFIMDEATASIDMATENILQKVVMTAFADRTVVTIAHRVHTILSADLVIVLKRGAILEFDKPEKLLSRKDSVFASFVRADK", "experiment": "Current inhibition in excised inside-out patches", "format": "biochemical", "set-up": "ANAP labelling is specific and only full-length Kir6.2 is expressed at the cell membrane; expressed in transfected cells; host or cells: HEK-293T", "conditions": "Mg2+-free, Hill fit", "protocol": "Currents were measured from patches from cells expressing KATP that were excised in the absence of Mg^2+. Under such conditions, nucleotides can bind to both sites on SUR1, but no activation occurs, allowing inhibitory currents to be measured in isolation ([Gribble et al., 1998]; [Ueda et al., 1999]; [Puljung et al., 2019])."}, "Kir6.2*,G334D-GFP + SUR1": {"molecular_target": "T2, Kir6.2*,G334D-GFP + SUR1 (Homo sapiens, UniProt Q14654, G334D)", "T2 construct": "ANAP labelling is specific and only full-length Kir6.2 is expressed at the cell membrane; expressed in transfected cells; host or cells: HEK-293T", "T2 sequence (Q14654 whole entry G334D)": "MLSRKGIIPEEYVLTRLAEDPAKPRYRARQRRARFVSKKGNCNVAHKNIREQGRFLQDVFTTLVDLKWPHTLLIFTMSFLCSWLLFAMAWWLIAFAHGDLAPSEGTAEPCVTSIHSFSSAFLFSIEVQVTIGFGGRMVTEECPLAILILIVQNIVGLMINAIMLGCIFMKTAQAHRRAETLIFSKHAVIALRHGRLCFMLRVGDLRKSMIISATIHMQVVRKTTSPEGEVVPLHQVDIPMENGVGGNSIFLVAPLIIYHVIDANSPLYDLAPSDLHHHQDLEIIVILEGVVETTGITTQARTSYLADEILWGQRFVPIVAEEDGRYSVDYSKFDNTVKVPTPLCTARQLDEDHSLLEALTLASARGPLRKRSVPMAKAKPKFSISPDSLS", "T2 sequence (Q09428 whole entry partner)": "as the sequence (Q09428 whole entry partner, one chain of several) above", "experiment": "FRET (ANAP quenching) nucleotide binding in unroofed membranes", "conditions": "Hill fit", "source_text": "as §1, with “Kir6.2. […]” for “Kir6.2.”\nas §2, §3"}}, "note": "“And” between values parts separate entries of the source, which are not always exact repeats. Equal values may be shown once."}
{"smiles": "Nc1ncnc2c1ncn2[C@@H]1O[C@H](COP(=O)(O)OP(=O)(O)OP(=O)(O)O)[C@H]2OC3(O[C@H]21)C([N+](=O)[O-])=CC(=[N+]([O-])[O-])C=C3[N+](=O)[O-]", "note": "(stereo partly drawn) [TNP-ATP, trinitrophenyl-ATP]", "values": [{"measurement": "increase in apparent EC50 compared to the same construct in the presence of SUR1", "setting": "Kir6.2-GFP (no SUR1)", "result": "approximately 1.5 fold"}, {"measurement": "h (Hill coefficient) fluorescence quenching", "setting": "Kir6.2-GFP (no SUR1); no SUR1, Hill fit", "result": 0.83}, {"measurement": "Emax", "setting": "Kir6.2-GFP (no SUR1); no SUR1, Hill fit, fraction, read-out: Emax fluorescence quenching", "result": 92, "unit": "%"}, {"measurement": "EC50", "setting": "Kir6.2-GFP (no SUR1); no SUR1, Hill fit, n = 14, read-out: EC50 fluorescence quenching", "result": "37.6 µM and 38 µM"}, {"measurement": "IC50", "setting": "Kir6.2-GFP + SUR1; IC50 current inhibition", "result": "1.2 µM and 1.17 µM"}, {"measurement": "h (Hill coefficient) current inhibition", "setting": "Kir6.2-GFP + SUR1", "result": 1.14}, {"measurement": "h (Hill coefficient) fluorescence quenching", "setting": "Kir6.2*,G334D-GFP + SUR1", "result": 2.63}, {"measurement": "Emax", "setting": "Kir6.2*,G334D-GFP + SUR1; fraction, read-out: Emax fluorescence quenching", "result": 8, "unit": "%"}, {"measurement": "EC50", "setting": "Kir6.2*,G334D-GFP + SUR1; n = 9, read-out: EC50 fluorescence quenching", "result": 493, "unit": "µM"}]}
